Measured values as given in publication PMC12024912, “Druggability Studies of Benzene Sulfonamide Substituted Diarylamide (E3) as a Novel Diuretic” (Biomedicines, 2025).
Read-outs that look alike come from different tables or passages of the source.

Experiments:
[1] = system: mice; assay: Diuretic effect of single intragastric administration in mice (metabolic cages); type: in vivo, mouse
Method: (§1) In a single-dose administration experiment, male wild-type (WT) mice, UT-B^-/- mice, UT-A1^-/- mice, or SD rats were adapted in metabolic cages for 3 d. Food and water were provided ad libitum throughout the experiment. Prior to administration, the bladder of each animal was emptied through gentle abdominal massage, and urine was collected from the metabolic cages every 2 h. Compound E3, suspended in 0.5% CMC-Na at an appropriate concentration, was administered intragastric gavage to the mice or rats (0.16, 0.8, 4, or 20 mg/kg). Vehicle control comprised 0.5% (w/v) CMC-Na. Urinary parameters were determined through the following: volume: Gravimetric analysis (1 g/mL density assumption); osmolality: freezing-point osmometry (Micro-osmometer, […] Associates, Norwood, MA, USA); and urea: diacetyl oxime colorimetry (QuantiChrom® kit, Elabscience, Wuhan, China). In long-term (7 d) diuretic activity experiments, male WT mice, UT-B^-/- mice, UT-A1^-/- mice, and SD rats were acclimatized in metabolic cages (Ugo Basile, Comerio, VA, Italy) for 3 d. Food and water were provided ad libitum throughout the experiment. E3 was suspended in 0.5% CMC-Na and administered at a dose of 4 or 20 mg/kg by intragastric gavage. Urine was collected by metabolic cages every 24 h. Body weight was measured daily. At 4 h after the final administration, a blood sample was obtained by heart puncture. Inner medulla and outer medulla tissue homogenates were prepared, and the supernatant after centrifugation was analyzed for solute concentration and osmolality. Urinary osmolality and urea concentration were measured as above. Serum Na^+, K^+, and Cl^- were measured in a clinical chemistry laboratory, while serum creatinine, ALT, and AST were measured through specific reagent kits (NJJC Bio, Nanjing, China).

[2] = system: SD rats; assay: Diuretic effect of single intragastric administration in rats (metabolic cages); type: in vivo, rat
Method: as §1

[3] = Pharmacokinetic study in rats; type: in vivo, rat
Method: Male SD rats were allowed free access to food in a controlled environment of 22 ± 2 °C, with a humidity level of 55% ± 5%, and maintained under a 12 h light/dark cycle. In the oral administration groups, E3 was delivered in a 0.5% CMC-Na solution at a dosage of 4 mg/kg body weight. Blood samples were collected by the orbital venous plexus and kept on ice at the following time points: 0.083, 0.167, 0.25, 0.5, 1, 2, 4, 6, 8, 12, and 24 h. E3 formulations (DMSO:PEG400:saline = 10:30:60, v/v) were administered via tail vein (1 mg/kg). Serial blood sampling (0.033, 0.083, 0.167, 0.333, 0.5, 1, 2, 4, 8, 12, and 24 h post-dose) yielded plasma via centrifugation (3000 r/min, 10 min, 4 °C), stored at −80 °C until PK analysis using DAS 3.2.8 (noncompartmental analysis model).
The analyte E3 and IS were dissolved in DMSO to generate the stock solutions. The working calibration of E3 was gradient-diluted with MeOH/H2O (1:1, v/v). Three microliters of working solutions were spiked with 27 μL of the blank rat plasma to establish the calibration standards. The final concentrations of the standard samples were 1, 2, 5, 10, 50, 250, 500, and 1000 ng/mL. Quality control samples (3/100/800 ng/mL) were prepared using identical protein precipitation protocols. Briefly, 30 μL calibrators and biological matrices were mixed with 450 μL stop solution, vortexed (5 min), and centrifuged (18,000× g, 10 min, 4 °C). Processed supernatants (2 μL injection volume) were subjected to LC-MS/MS analysis.
The analysis was conducted by an Xevo TQ-S Cronos Triple Quadrupole Mass Spectrometer coupled with an ACQUITY UPLC (Waters Corp, Milford, MA, USA). The chromatographic separation was conducted in an ACQUITY UPLC BEH C18 1.7 µm column (Waters, Milford, MA, USA) at 40 °C with a flow rate of 0.4 mL/min. The mobile phases were 0.1% (v/v) formic acid in water (A) and pure ACN (B). […] An electrospray ionization (ESI) source with multiple–reaction monitoring (MRM) in positive–ion mode was employed to quantify the analytes with the transitions of m/z 385.11 > 244.19 and m/z 271.136 > 91.01 for E3 and IS, respectively. The optimized cone voltage is 10 V and 24 V for E3 and IS, respectively. The collision energy is 12 V and 32 V for E3 and IS, respectively. MassLynx v4.2 (Waters Corp, Milford, MA, USA) was used for data acquisition and analysis.

[4] = UT-A1−/− mice, 20 mg/kg single dose
[5] = UT-B−/− mice, 20 mg/kg single dose
[6] = mice, single intragastric gavage
[7] = male, SD, rat, plasma, iv, 1 mg/kg, single i.v. 1 mg/kg, n = 5
[8] = male, SD, rat, plasma, iv, single i.v. 1 mg/kg, n = 5
[9] = male, SD, rat, plasma, po, 4 mg/kg, single p.o. 4 mg/kg, n = 5
[10] = male, SD, rat, plasma, po, single p.o. 4 mg/kg, n = 5

Structure (SMILES): CC(=O)c1ccc(C(=O)Nc2cccc(NS(=O)(=O)c3ccccc3)c2)o1 [Compound E3, 5-acetyl-N-(3-(phenylsulfonamido)phenyl)furan-2-carboxamide]
- excretion of non-urea solutes [1, 4]: not significantly changed
- urea concentration (urine) [1, 4]: no significant change
- urinary osmolality [1, 4]: no significant change
- urine output [1, 4]: no significant change
- excretion of non-urea solutes [1, 5]: not significantly changed
- urinary osmolality [1, 5]: decreased correspondingly
- urinary urea [1, 5]: decreased correspondingly
- urine output ([1]; UT-B−/− mice, 20 mg/kg single dose, 2 h post administration): markedly increased
- urinary osmolality [1, 6]: decreased
- urinary urea [1, 6]: decreased
- urine output ([1]; mice, single intragastric gavage 0.16-20 mg/kg, vs vehicle): significantly increased
- excretion of non-urea solutes ([1]; mice, single intragastric gavage, vs control): not significantly different
- urinary osmolality ([2]; single intragastric gavage): decreased
- urinary urea ([2]; single intragastric gavage): decreased
- urine output ([2]; single intragastric gavage 0.16-20 mg/kg, vs vehicle): significantly increased
- excretion of non-urea solutes ([2]; single intragastric gavage, vs control): not significantly different
- plasma concentration within 24 h ([3]; after intragastric gavage administration): less than 2 ng/mL
- MRT [3, 7]: 1.1 h
- half-life [3, 7]: 1.9 h
- AUC(0-inf) [3, 8]: 1120 ng·h/mL
- AUC(0-t) [3, 8]: 1120 ng·h/mL
- Cmax ([3]; male, SD, rat, plasma, iv, single i.v. 1 mg/kg, n = 5, read-out: C max): 2540 ng/mL
- bioavailability ([3]; male, SD, rat, plasma, oral, p.o. 4 mg/kg vs i.v. 1 mg/kg, read-out: F (oral bioavailability)): 21.1%
- MRT [3, 9]: ~6.1 h
- Tmax [3, 9]: ≤ 2 h
- half-life [3, 9]: ~4.9 h
- Cmax ([3]; male, SD, rat, plasma, po, p.o. 4 mg/kg, conversion of 170.3 ng/mL, read-out: Cmax in molar units): 443 nM
- AUC(0-inf) [3, 10]: 943 ng·h/mL
- AUC(0-t) [3, 10]: 919 ng·h/mL
- CL/F [3, 10]: 70 mL/min/kg
- Cmax ([3]; male, SD, rat, plasma, po, single p.o. 4 mg/kg, n = 5, read-out: C max): 170 ng/mL
- V (V/F row; V for the i.v. group) ([3]; single i.v. 1 mg/kg, n = 5): 2.5 L/kg
- V/F ([3]; single p.o. 4 mg/kg, n = 5): 30.1 L/kg
